# Patent US8012711B2, “Methods of screening for compounds that reduce microbial resistance to fluoroquinolones” (priority 1999, dated 2011)
# Read-outs that look alike come from different tables or passages of the source.
# Legend:
# [1] = system: Escherichia coli AG100, AG112 and derived fluoroquinolone-resistant mutants with ΔacrAB; test: MIC by broth microdilution, AcrAB-deleted strains; assay type: cell-based; details: for MIC: Escherichia coli; for Ofx MIC: AcrAB knocked out
# Experimental: (§1) Susceptibility testing. MICs of selected antimicrobial agents were determined by a standard broth microdilution procedure with cation-adjusted Mueller-Hinton broth (Becton Dickinson, Cockeysville, Md.) and an inoculum of 5×10^5 CFU/ml according to NCCLS performance and interpretive guidelines (NCCLS. 1997. Methods for dilution antimicrobial susceptibility. Tests for bacteria that grow aerobically—Fourth Edition; Approved Standard. NCCLS document M7-A4 (ISBN 1-56238-309-4). NCCLS, 940 West Valley Road, Suite 1400, Wayne, Pa. 19087). Antimicrobial agents on the commercially available microtiter plates (Merlin Diagnostics GmbH, Bornheim, Germany) included the FQs ciprofloxacin (CIP), enoxacin, fleroxacin, nor-flo-xacin, ofloxacin (OFL), pefloxacin, sparfloxacin (SPX), and trovafloxacin (TVA). They also included tetracycline (TET), chloramphenicol (CML), trimethoprim (TMP), cefoxitin (CFOX), cefaclor, cefixim and loracarbef. MICs of bile salts were determined by a broth macrodilution procedure: sodium cholate and sodium deoxycholate were serially diluted twofold in LB broth and tubes inoculated at 5×10^5 CFU/ml. MICs of both antibiotics and bile salts were determined twice in independent experiments with reproducible results.
# P1 transduction. […] DNA sequencing.
# [2] = system: Escherichia coli K-12 AG100, its Mar mutant AG112 and derived fluoroquinolone-resistant mutants (acrAB+); test: MIC by broth microdilution, acrAB+ strains; assay type: cell-based; details: for MIC: Escherichia coli; for Ofx MIC: with AcrAB
# Experimental: Selection of fluoroquinolone-resistant mutants. 1-AG100, 2°-AG100, 3*-AG100, 4*-AG100 and 1′-AG112, 2′-AG112, 3′-AG112 were sequential step mutants derived from AG 100 and AG112, respectively, on solid media. For each step, about 10^11 cells of an overnight culture were plated on several LB agar plates supplemented with increasing concentrations of OFL. Single colonies were further purified on OFL-supplemented agar plates. Mutant 2°-AG100 came out of one series, while mutants 3*- and 4*-AG100 came from a second series.
# as §1
# [3] = system: Escherichia coli K-12 AG100, AG112 and derived fluoroquinolone-resistant mutants (wild-type acrAB); details: whole energized cells
# [4] = system: Escherichia coli AG100, AG112 and derived mutants bearing ΔacrAB; details: all strains, energized cells
# [5] = system: Escherichia coli K-12 AG100, its Mar mutant AG112 and derived fluoroquinolone-resistant mutants (acrAB+); test: MIC by broth microdilution, acrAB+ strains; assay type: cell-based
# [6] = strain 1-AG112 (1′-AG112), ΔacrAB
# [7] = strain 2-AG100 (2°-AG100), ΔacrAB
# [8] = strain 2-AG112 (2′-AG112), ΔacrAB
# [9] = strain 3-AG112 (3′-AG112), ΔacrAB
# [10] = strain 1-AG100, acrAB+, read-out: MIC
# [11] = strain 1-AG112 (1′-AG112), acrAB+, read-out: MIC
# [12] = strain 2-AG100 (2°-AG100), acrAB+, read-out: MIC
# [13] = strain 2-AG112 (2′-AG112), acrAB+, read-out: MIC
# [14] = strain 3*-AG100, acrAB+, read-out: MIC
# [15] = strain 3-AG112 (3′-AG112), acrAB+, read-out: MIC
# [16] = strain 4*-AG100, acrAB+, read-out: MIC
# [17] = strain AG100, acrAB+, read-out: MIC
# [18] = strain AG112 (Mar mutant), acrAB+
compound,measurement,setting,value
"CO[C@@]1(NC(=O)Cc2cccs2)C(=O)N2C(C(=O)O)=C(COC(N)=O)CS[C@@H]21 [CFOX, cefoxitin]",MIC,"[1]; strain 1-AG100, ΔacrAB",0.5 µg/mL
same,MIC,[1]; [6],1 µg/mL
same,MIC,[1]; [7],0.5 µg/mL
same,MIC,[1]; [8],0.5 µg/mL
same,MIC,"[1]; strain 3*-AG100, ΔacrAB",0.5 µg/mL
same,MIC,[1]; [9],0.5 µg/mL
same,MIC,"[1]; strain 4*-AG100, ΔacrAB",1 µg/mL
same,MIC,"[1]; strain AG100, ΔacrAB",0.5 µg/mL
same,MIC,"[1]; strain AG112, ΔacrAB",1 µg/mL
same,MIC,[2]; [10],4 µg/mL
same,MIC,[2]; [11],16 µg/mL
same,MIC,[2]; [12],16 µg/mL
same,MIC,[2]; [13],32 µg/mL
same,MIC,[2]; [14],32 µg/mL
same,MIC,[2]; [15],64 µg/mL
same,MIC,[2]; [16],32 µg/mL
same,MIC,[2]; [17],4 µg/mL
same,MIC,[2]; [18],32 µg/mL
"O=C(O)c1cn(C2CC2)c2cc(N3CCNCC3)c(F)cc2c1=O [CIP, ciprofloxacin]",MIC,"[1]; strain 1-AG100, ΔacrAB",0.06 µg/mL
same,MIC,[1]; [6],0.03 µg/mL
same,MIC,[1]; [7],0.06 µg/mL
same,MIC,[1]; [8],0.03 µg/mL
same,MIC,"[1]; strain 3*-AG100, ΔacrAB",0.06 µg/mL
same,MIC,[1]; [9],0.03 µg/mL
same,MIC,"[1]; strain 4*-AG100, ΔacrAB",0.125 µg/mL
same,MIC,"[1]; strain AG100, ΔacrAB",≤ 0.015 µg/mL
same,MIC,"[1]; strain AG112, ΔacrAB",≤ 0.015 µg/mL
same,MIC,[2]; [10],0.25 µg/mL
same,MIC,[2]; [11],0.5 µg/mL
same,MIC,"[2]; strain 2-AG100 (2°-AG100), acrAB+",0.5 µg/mL
same,MIC,[2]; [13],2 µg/mL
same,MIC,[2]; [14],1 µg/mL
same,MIC,[2]; [15],4 µg/mL
same,MIC,[2]; [16],2 µg/mL
same,MIC,[2]; [17],≤ 0.015 µg/mL
same,MIC,[2]; [18],0.06 µg/mL
same,Time at which CIP accumulation reached a plateau,[3],≤ 5 min
same,Active efflux of ciprofloxacin upon deletion of AcrAB,[4],completely aborted
same,Active efflux of ciprofloxacin upon deletion of AcrAB,[4]; listed as cfx,completely abolished
"O=C(N[C@H](CO)[C@H](O)c1ccc([N+](=O)[O-])cc1)C(Cl)Cl [CML, chloramphenicol]",MIC,"[1]; strain 1-AG100, ΔacrAB",1 µg/mL
same,MIC,[1]; [6],1 µg/mL
same,MIC,[1]; [7],1 µg/mL
same,MIC,[1]; [8],1 µg/mL
same,MIC,"[1]; strain 3*-AG100, ΔacrAB",1 µg/mL
same,MIC,[1]; [9],1 µg/mL
same,MIC,"[1]; strain 4*-AG100, ΔacrAB",1 µg/mL
same,MIC,"[1]; strain AG100, ΔacrAB",1 µg/mL
same,MIC,"[1]; strain AG112, ΔacrAB",1 µg/mL
same,MIC,[2]; [10],4 µg/mL
same,MIC,[2]; [11],32 µg/mL
same,MIC,[2]; [12],16 µg/mL
same,MIC,[2]; [13],64 µg/mL
same,MIC,[2]; [14],32 µg/mL
same,MIC,[2]; [15],64 µg/mL
same,MIC,[2]; [16],64 µg/mL
same,MIC,[2]; [17],4 µg/mL
same,MIC,[2]; [18],16 µg/mL
"CC1COc2c(N3CCN(C)CC3)c(F)cc3c(=O)c(C(=O)O)cn1c23 (centres unmarked) [OFL, ofloxacin]",Ofx MIC,"[1]; AG100 series, 1st step mutant",0.06 µg/mL
same,Ofx MIC,"[1]; AG100 series, 2nd step mutant",0.06 µg/mL
same,Ofx MIC,"[1]; AG100 series, 3rd step mutant",0.06 µg/mL
same,Ofx MIC,"[1]; AG100 series, 4th step mutant",0.125 µg/mL
same,Ofx MIC,"[1]; AG100 series, parent",< 0.015 µg/mL
same,Ofx MIC,"[1]; AG102 series, 1st step mutant",0.06 µg/mL
same,Ofx MIC,"[1]; AG102 series, 2nd step mutant",0.06 µg/mL
same,Ofx MIC,"[1]; AG102 series, 3rd step mutant",0.06 µg/mL
same,Ofx MIC,"[1]; AG102 series, parent",< 0.015 µg/mL
same,MIC,"[1]; strain 1-AG100, ΔacrAB",0.06 µg/mL
same,MIC,[1]; [6],0.06 µg/mL
same,MIC,[1]; [7],0.06 µg/mL
same,MIC,[1]; [8],0.06 µg/mL
same,MIC,"[1]; strain 3*-AG100, ΔacrAB",0.06 µg/mL
same,MIC,[1]; [9],0.06 µg/mL
same,MIC,"[1]; strain 4*-AG100, ΔacrAB",0.125 µg/mL
same,MIC,"[1]; strain AG100, ΔacrAB",≤ 0.015 µg/mL
same,MIC,"[1]; strain AG112, ΔacrAB",≤ 0.015 µg/mL
same,Enhancement of ofx resistance by in-vitro amplification,"[5]; AG102, three steps, 0.125 mg/l to 8 mg/l",64 fold
same,Ofx MIC,"[5]; AG102 series, 1st step mutant, with AcrAB",1.0 µg/mL
same,Enhancement of ofx resistance by in-vitro amplification,"[2]; AG100, four steps, 0.03 mg/l to 4 mg/l",128 fold
same,Ofx MIC,"[2]; AG100 series, 1st step mutant",0.25 µg/mL
same,Ofx MIC,"[2]; AG100 series, 2nd step mutant",1.0 µg/mL
same,Ofx MIC,"[2]; AG100 series, 3rd step mutant",2.0 µg/mL
same,Ofx MIC,"[2]; AG100 series, 4th step mutant",4.0 µg/mL
same,Ofx MIC,"[2]; AG100 series, parent",0.03 µg/mL
same,Ofx MIC,"[2]; AG102 series, 2nd step mutant",4.0 µg/mL
same,Ofx MIC,"[2]; AG102 series, 3rd step mutant",8.0 µg/mL
same,Ofx MIC,"[2]; AG102 series, parent (Mar mutant)",0.125 µg/mL
same,MIC,[2]; [10],0.25 µg/mL
same,MIC,[2]; [11],1 µg/mL
same,MIC,[2]; [12],1 µg/mL
same,MIC,[2]; [13],4 µg/mL
same,MIC,[2]; [14],2 µg/mL
same,MIC,[2]; [15],8 µg/mL
same,MIC,[2]; [16],4 µg/mL
same,MIC,[2]; [17],0.03 µg/mL
same,MIC,[2]; [18],0.125 µg/mL
same,Fold increase of OFL MIC,"[2]; strain 1-AG100, as compared to AG100 (wild-type)",8 fold
same,Fold increase of OFL MIC,"[2]; strain 1-AG112 (1′-AG112), as compared to AG100 (wild-type)",32 fold
same,Fold increase of OFL MIC,"[2]; strain 2-AG100 (2°-AG100), as compared to AG100 (wild-type)",32 fold
same,Fold increase of OFL MIC,"[2]; strain 2-AG112, as compared to AG100 (wild-type)",128 fold
same,Fold increase of OFL MIC,"[2]; strain 3*-AG100, as compared to AG100 (wild-type)",64 fold
same,Fold increase of OFL MIC,"[2]; strain 3-AG112, as compared to AG100 (wild-type)",256 fold
same,Fold increase of OFL MIC,"[2]; strain 4*-AG100, as compared to AG100 (wild-type)",128 fold
same,Fold increase of OFL MIC,"[2]; strain AG112, as compared to AG100 (wild-type)",4 fold
same,Increase of resistance to OFL by the first mutation step,[2]; {},8 fold
